According to PubChem BioAssay AID2252 (Southern Research Specialized Biocontainment Screening …, 2010):

test system: THP-1 viability, CellTiter-Glo luminescence, 72 h; assay: PubChem AID 2252

| Structure (SMILES) | EC50 |
| --- | --- |
| O=C(Cn1nc(CNc2ccc(Cl)cc2)[n+]2c1CCCCC2)c1ccc(Br)cc1 | 11.2 µM |
| Fc1ccc(Nc2nc(NCc3ccco3)c3ccccc3n2)cc1 | 5.9 µM |
| NCC/C=C1/c2ccccc2CSc2ccccc21 | 25.9 µM |
| O=C(NCCCNc1ccnc2cc(Cl)ccc12)c1ccccc1F | 21.2 µM |
| COc1ccc(NS(=O)(=O)c2cc(NC(=O)c3ccc(C)s3)ccc2N2CCOCC2)cc1 | 21.6 µM |
| Nc1nonc1C(=O)NCCN=Cc1cc(Cc2ccccc2)cc(Br)c1O | 28 µM |
| Cc1cc(OCC(O)CNC(C)c2ccccc2)ccc1C(C)C (stereo not given) | 13.4 µM |
| COc1ccc2nc(N(CCN(C)C)C(=O)/C=C/c3cccs3)sc2c1 | 16.1 µM |
| O=C(Nc1c(Cl)ccc2nsnc12)c1ccc([N+](=O)[O-])o1 | 3.84 µM |
| CCc1ccc(CNCc2ccc(OCC(O)CN(C)Cc3ccccc3)cc2)nc1 (stereo not given) | 23 µM |
| COC(=O)CC1C(=O)NCCN1C(=O)CSc1nc2ccc([N+](=O)[O-])cc2s1 (stereo not given) | < 0.1 µM |
| CCOC(=O)c1c(C)[nH]c(C(=O)CN2C(=O)NC(C)(c3ccc4ccccc4c3)C2=O)c1C (stereo not given) | 39.1 µM |
| COc1ccc(OC)c(S(=O)(=O)N2CCC(C(=O)NCc3ccccc3OC)CC2)c1 | < 0.1 µM |
| CN(C)CCCNc1cc(C(C)(C)C)nc2c(-c3ccccc3)cnn12 | 6.48 µM |
| COc1cc(CNC2CCCC2)cc(Cl)c1OCc1ccccc1Cl | 14.4 µM |
| CC(=O)NC(c1ccc2ccccc2c1)c1ccc2cccnc2c1O (stereo not given) | 0.36 µM |
| CC(NCC(O)COCCC12CC3CC(CC(C3)C1)C2)c1ccccc1 (stereo not given) | 9.86 µM |
| CCCCOc1ccc(Br)cc1CSC(=N)N | 5.93 µM |
| Oc1ccc(COCc2ccccc2)c2cccnc12 | 1.24 µM |
| COc1cc2c3cc1Oc1cc(ccc1O)C[C@@H]1c4c(cc(OC)c(O)c4Oc4ccc(cc4)C[C@H]3N(C)CC2)CCN1C | 8.8 µM |
| Cc1ccc(O)c(Nc2c3ccccc3nc3ccccc23)c1 | 14.2 µM |
| CCCCOc1ccc(NC2=NC3(CCCC3)N=C(N)N2)cc1 | 17.4 µM |
| O=C(Cc1ccccc1)N/N=C/c1cc(Br)cc(Cl)c1O | 3.7 µM |
| CN(C)CC/C=C1\c2ccc(F)cc2Sc2cc(F)c(Cl)cc21 | 11.3 µM |
| COc1ccccc1C(C[N+](=O)[O-])c1c(N)n(C)c(=O)n(C)c1=O (stereo not given) | 8.91 µM |
| Clc1ccc(OCCCNCc2ccccc2)c(Br)c1 | 13.7 µM |
| COc1cccc(/C=C/C(=O)c2cccc([N+](=O)[O-])c2)c1OC | 22.3 µM |

| Structure (SMILES) | EC50 |
| --- | --- |
| CC1CCN(CC(CS(=O)(=O)c2ccc([N+](=O)[O-])cc2)N2CCC(C)CC2)CC1 (stereo not given) | 14.6 µM |
| COc1cc(CNCCc2c[nH]c3ccccc23)ccc1OCc1ccccc1F | 13.1 µM |
| Oc1c(Br)cc(Br)cc1Oc1ccc(Br)cc1Br | 26.9 µM |
| CCCCc1ccc2[nH]cc(CCN)c2c1 | 7.81 µM |
| O=C(Nc1nnc(-c2cccs2)o1)c1cccc(C(F)(F)F)c1 | 14.3 µM |
| CN(C)CCCN(C(=O)c1cc2cc([N+](=O)[O-])ccc2s1)c1nc2cc3c(cc2s1)OCCO3 | 3.04 µM |
| Cc1[nH]c2ccccc2c1/C=N/Nc1nc2ccccc2[nH]1 | 1.52 µM |
| Cc1cc(N2CCC(C)CC2)nc2cccc(O)c12 | 26.4 µM |
| O=S1(=O)CC=C(CSc2nc3ccccc3[nH]2)C1 | < 0.1 µM |
| Cc1ccc(N2C(N)=C(C#N)C(c3cccnc3)C3=C2CC(C)(C)CC3=O)cc1 (stereo not given) | 32.9 µM |
| CCc1ccc2c(c1)C1(NN=C(c3ccc(C)cc3)S1)C(=O)N2 (stereo not given) | 9.42 µM |
| O=C(Cn1nc(CNc2ccc(Br)cc2)[n+]2c1CCCCC2)c1ccc([N+](=O)[O-])cc1 | 27.3 µM |
| CCN1/C(=C/C(C)=C/c2sc3ccccc3[n+]2CC)Sc2ccccc21 | 0.72 µM |
| O=C(/C=C/c1cc(Br)ccc1O)c1ccco1 | 8.79 µM |
| CC(NCc1ccc(Cl)c(Cl)c1)C(O)c1ccccc1 (stereo not given) | 30.6 µM |
| COc1ccc(C(=O)NC(=S)NNC(=O)c2cnccn2)cc1OC | 6.82 µM |
| CCOC(=O)c1c(-c2ccccc2)oc2ccc(OCC(O)CNCCN(C)C)cc12 (stereo not given) | 5.89 µM |
| Cc1ccc(Nc2nc(NCCO)c3ccccc3n2)cc1C | 3.06 µM |
| COc1ccc(C[C@H]2CN3C(=NC[C@H]3Cc3ccccc3)N2CCNC(=O)c2ccc(C)c(Br)c2)cc1 | 7.83 µM |
| C#CCOCCOCCOCCNc1nc(N2CCN(C(=O)CCCCCCCCCCNC(=O)Cn3cc(CCCCCN)nn3)CC2)nc(N2CCN(C(=O)CCCCCCCCCCNC(=O)[C@H]([C@@H](C)CC)n3cc(CCCCCN)nn3)CC2)n1 | 14.5 µM |
| c1ccc2cc(CSCc3nc4ccccc4[nH]3)ccc2c1 | 48.5 µM |
| O=C(CN1CC[n+]2c(-c3cccs3)csc21)c1ccc(-c2ccccc2)cc1 | 13 µM |
| CCOC(=O)CNC(=O)Cn1c(C)cc2ccccc2c1=O | 40.9 µM |
| C1=C(CCNc2ncnc3c2[nH]c2ccccc23)CCCC1 | 5.45 µM |
| O=C1C(Cl)=C(NCc2cccnc2)C(=O)c2ccccc21 | 12.5 µM |
| O=[N+]([O-])/C=C/c1cc2ccccc2[nH]1 | 44.9 µM |
| CS(=O)(=O)c1ccc2nc(NC(=O)c3ccc(Cl)nc3)sc2c1 | 46.2 µM |

| Structure (SMILES) | EC50 |
| --- | --- |
| O=C(/C=C/c1ccccc1)c1ccc(NC2=NCCCS2)cc1 | 27.4 µM |
| CC(/C=N/Nc1nc2ccccc2[nH]1)=C\c1ccccc1 | 33.4 µM |
| C#CCOCCOCCOCCNc1nc(N2CCN(C(=O)CCCCCCCCCCNC(=O)[C@H](CCCCN)n3cc(C)nn3)CC2)nc(N2CCN(C(=O)CCCCCCCCCCNC(=O)[C@H](CO)n3cc(CCCSC)nn3)CC2)n1 | 10.4 µM |
| CC1Cc2ccccc2N1S(=O)(=O)c1cccc(C(=O)N2CC(=O)Nc3ccccc32)c1 (stereo not given) | 46.1 µM |
| O=C(Nc1ccc(-c2nc3ccccc3[nH]2)cc1)c1ccco1 | 10.6 µM |
| CCOc1ccc(-c2c[n+]3c(n2-c2ccccc2)CCCCC3)cc1 | 25.6 µM |
| Cc1ccc(C(C)C)c(OCCNC(=O)c2ccccc2O)c1 | 32.5 µM |
| CCCCCCCCCCCCCCCC[n+]1ccc(/C=N/O)cc1 | 0.3 µM |
| COc1ccc(CNC(=O)CCC(=O)N2C[C@H]3C[C@H](C2)c2cccc(=O)n2C3)cc1 | < 0.1 µM |
| O=C1C=C(c2ccc(Cl)cc2)C(=O)N1Nc1ccccc1 | 5.96 µM |
| Cc1ccc(C)c(NC(=O)c2ccccc2O)c1 | 35.1 µM |
| O=C(CCl)NC1CCCc2ccccc21 (stereo not given) | 25.7 µM |
| O=C(N/N=C/c1cc(Br)ccc1O)c1ccccc1Cl | 1.49 µM |
| Cc1ccc2nc(NCc3ccccc3)[nH]c2c1 | 3.85 µM |
| COc1ccc(N=CC2=C(Nc3ccc(OC)cc3)c3c(C)nn(-c4ccccn4)c3CC2)cc1 | 2.16 µM |
| C#CCOCCOCCOCCNc1nc(N2CCN(C(=O)CCCCCCCCCCNC(=O)[C@H]([C@@H](C)CC)n3cc(CCCCCN)nn3)CC2)nc(N2CCN(C(=O)CCCCCCCCCCNC(=O)[C@H]([C@@H](C)CC)n3cc(CCCCN=C(N)N)nn3)CC2)n1 | 5.17 µM |
| O=[N+]([O-])c1cc(O)c2ncccc2c1 | 5.78 µM |
| Oc1c(CN2CCCCC2)cc(Br)c2cccnc12 | 2.65 µM |
| Cc1cc(Cl)c(OCCCNCc2ccccc2)c(Br)c1 | 21.4 µM |
| CC1CCN(CCOCCOc2ccc(Br)cc2Cl)CC1 | 32.9 µM |
| CCn1cc(C(=O)O)c(=O)c2cc(F)c(N3CCN(C(=S)NC(=O)c4cccc(C)c4)CC3)cc21 | < 0.1 µM |
| COc1ccccc1Nc1nc(NCc2ccco2)c2ccccc2n1 | 13.3 µM |
| CC(C)(c1ccccc1)c1ccc(OCCCNCCO)cc1 | 16.6 µM |
| CCCCCCCNC(=O)C1(CC2CC(c3cccc(Br)c3)=NO2)CCNCC1 (stereo not given) | 7 µM |
| N=C1c2ccccc2CN1c1ncccn1 | < 0.1 µM |
| Oc1ccc(C=Nc2cccc3ncccc23)c(O)c1 | 3.33 µM |
